The source of these data is patent US10168342B2, “Lipid probes and uses thereof” (THE SCRIPPS RESEARCH INSTITUTE, priority 2015, dated 2019).

Experiment [1] deals with AEA-DA lipid probe targets in Neuro2a cells (Mus musculus, UniProt Q61584).
The target of experiment [2] is T1, AEA-DA lipid probe targets in Neuro2a cells (Mus musculus, UniProt Q9CRD0).
T1 sequence (Q9CRD0 1-247): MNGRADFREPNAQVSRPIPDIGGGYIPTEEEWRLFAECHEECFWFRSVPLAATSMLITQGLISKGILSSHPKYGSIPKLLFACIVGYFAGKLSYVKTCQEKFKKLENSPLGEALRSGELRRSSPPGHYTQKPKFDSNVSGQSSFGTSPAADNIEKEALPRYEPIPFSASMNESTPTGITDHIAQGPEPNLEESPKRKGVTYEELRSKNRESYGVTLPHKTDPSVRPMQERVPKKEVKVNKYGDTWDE

Experiment [3] addresses T2, AEA-DA lipid probe targets in Neuro2a cells (Mus musculus, UniProt Q99L04).
T2 sequence (Q99L04 1-313): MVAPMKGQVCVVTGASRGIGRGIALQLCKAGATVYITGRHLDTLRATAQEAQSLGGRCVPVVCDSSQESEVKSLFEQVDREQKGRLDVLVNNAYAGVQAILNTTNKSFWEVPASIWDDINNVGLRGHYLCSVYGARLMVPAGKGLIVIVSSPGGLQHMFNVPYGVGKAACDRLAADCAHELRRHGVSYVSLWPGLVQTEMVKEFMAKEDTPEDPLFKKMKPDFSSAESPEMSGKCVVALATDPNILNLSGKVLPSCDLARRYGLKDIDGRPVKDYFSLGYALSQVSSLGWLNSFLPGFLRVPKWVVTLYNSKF

The target in experiment [4] is T3, AEA-DA lipid probe targets in Neuro2a cells (Mus musculus, UniProt Q5XJY4).
T3 sequence (Q5XJY4 51-377): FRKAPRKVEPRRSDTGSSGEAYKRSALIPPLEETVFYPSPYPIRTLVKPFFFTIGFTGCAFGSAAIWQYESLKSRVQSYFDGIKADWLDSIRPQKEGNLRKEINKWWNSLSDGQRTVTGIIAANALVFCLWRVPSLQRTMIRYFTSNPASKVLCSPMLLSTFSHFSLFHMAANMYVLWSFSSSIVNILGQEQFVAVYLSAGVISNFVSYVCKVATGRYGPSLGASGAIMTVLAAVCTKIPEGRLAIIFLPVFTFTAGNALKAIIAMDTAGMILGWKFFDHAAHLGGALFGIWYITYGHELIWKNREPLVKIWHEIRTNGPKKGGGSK

In experiment [5] the target is T4, AEA-DA lipid probe targets in Neuro2a cells (Mus musculus, UniProt Q8R0X7).
T4 sequence (Q8R0X7 1-568): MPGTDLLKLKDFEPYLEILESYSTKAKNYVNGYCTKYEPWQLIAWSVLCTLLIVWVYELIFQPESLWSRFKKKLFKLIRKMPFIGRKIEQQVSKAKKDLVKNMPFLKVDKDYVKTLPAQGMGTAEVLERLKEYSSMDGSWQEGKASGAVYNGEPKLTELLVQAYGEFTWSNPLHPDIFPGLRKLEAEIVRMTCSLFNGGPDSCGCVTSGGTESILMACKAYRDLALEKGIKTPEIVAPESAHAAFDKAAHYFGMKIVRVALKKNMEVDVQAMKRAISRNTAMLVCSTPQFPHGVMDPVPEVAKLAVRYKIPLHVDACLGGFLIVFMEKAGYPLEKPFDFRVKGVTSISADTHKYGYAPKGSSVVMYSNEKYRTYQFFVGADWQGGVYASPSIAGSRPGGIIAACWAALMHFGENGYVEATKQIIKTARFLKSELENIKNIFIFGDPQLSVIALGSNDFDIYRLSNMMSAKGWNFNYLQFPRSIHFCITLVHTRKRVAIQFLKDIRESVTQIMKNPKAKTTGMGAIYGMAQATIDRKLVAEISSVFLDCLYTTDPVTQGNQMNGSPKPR
The following applies: for SILAC ratio, SGPL1 (O95470): Neuro2a cells, AEA-DA probe.

In experiment [6] the target is T5, AEA-DA lipid probe targets in Neuro2a cells (Mus musculus, UniProt Q61035).
T5 sequence (Q61035 1-509): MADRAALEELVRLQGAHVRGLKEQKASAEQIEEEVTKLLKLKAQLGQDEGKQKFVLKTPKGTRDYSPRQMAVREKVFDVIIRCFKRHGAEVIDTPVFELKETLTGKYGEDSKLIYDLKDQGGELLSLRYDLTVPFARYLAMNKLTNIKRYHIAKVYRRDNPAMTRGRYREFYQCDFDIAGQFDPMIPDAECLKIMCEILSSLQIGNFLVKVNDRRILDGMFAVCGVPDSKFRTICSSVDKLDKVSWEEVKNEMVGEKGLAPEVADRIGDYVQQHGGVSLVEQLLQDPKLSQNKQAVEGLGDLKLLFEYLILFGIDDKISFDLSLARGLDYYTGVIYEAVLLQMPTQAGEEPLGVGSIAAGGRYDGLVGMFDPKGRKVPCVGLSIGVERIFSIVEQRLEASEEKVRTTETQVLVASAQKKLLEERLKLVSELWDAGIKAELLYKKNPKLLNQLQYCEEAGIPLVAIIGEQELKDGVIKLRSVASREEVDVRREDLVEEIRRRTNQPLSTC

The structures appear in SMILES notation. Where two headings read alike, the source gives them in different places.

Sequence of AEA-DA lipid probe targets in Neuro2a cells (Mus musculus, UniProt Q61584) (Q61584 whole entry): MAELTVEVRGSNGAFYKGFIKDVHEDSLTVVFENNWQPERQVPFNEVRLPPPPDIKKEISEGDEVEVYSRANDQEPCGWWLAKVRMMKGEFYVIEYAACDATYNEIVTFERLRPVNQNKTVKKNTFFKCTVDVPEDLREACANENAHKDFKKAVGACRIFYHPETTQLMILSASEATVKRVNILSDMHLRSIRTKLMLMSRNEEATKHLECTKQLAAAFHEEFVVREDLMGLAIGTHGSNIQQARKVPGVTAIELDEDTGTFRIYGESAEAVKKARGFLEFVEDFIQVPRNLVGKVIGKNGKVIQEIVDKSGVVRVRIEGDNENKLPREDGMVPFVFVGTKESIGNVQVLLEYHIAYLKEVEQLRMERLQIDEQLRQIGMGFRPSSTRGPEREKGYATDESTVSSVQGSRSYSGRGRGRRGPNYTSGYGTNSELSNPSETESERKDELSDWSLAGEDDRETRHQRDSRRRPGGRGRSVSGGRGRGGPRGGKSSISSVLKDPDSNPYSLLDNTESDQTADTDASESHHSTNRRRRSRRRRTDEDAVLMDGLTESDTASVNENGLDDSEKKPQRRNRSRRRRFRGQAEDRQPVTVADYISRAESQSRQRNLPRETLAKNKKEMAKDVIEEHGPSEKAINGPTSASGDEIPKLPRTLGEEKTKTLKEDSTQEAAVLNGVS

For `CCCCC/C=C\C/C=C\C/C=C\C/C=C\CCCC(=O)NCCO` [AEA, anandamide, reference compound], the “SILAC ratio Fxr1” value in experiment [1] (competitor 200 μM) came to 1.1. For the same compound, the “SILAC ratio Ociad1” value in experiment [2] (competitor 200 μM) is on record as 1.6. The “SILAC ratio, Dhrs1” value in experiment [3] (competitor 200 μM) was 18.4. Also, the “SILAC ratio Parl” value in experiment [4] (competitor 200 μM) came out at 1.3. Moreover, in experiment [5] (competitor 200 μM), the “SILAC ratio, SGPL1 (O95470)” value came out at 2.7 and the “SILAC ratio, Sgpl1” value was found to be 2.7. In experiment [6] (competitor 200 μM), the “SILAC ratio Hars” value was 1.2.
As for `O=C(/C=C/c1cccnc1)NCCCCC1CCN(C(=O)c2ccccc2)CC1` [FK-866, reference compound], the “SILAC ratio Fxr1” value in experiment [1] (competitor 25 μM) came out at 1.4. Besides, the “SILAC ratio Ociad1” value in experiment [2] (competitor 25 μM) is reported as 1.1. Besides, in experiment [3] (competitor 25 μM), the “SILAC ratio, Dhrs1” value was found to be 8.0. Moreover, the “SILAC ratio Parl” value in experiment [4] (competitor 25 μM) is given as 1.3. Further, in experiment [5] (competitor 25 μM), the “SILAC ratio, SGPL1 (O95470)” value was determined as 1.7 and the “SILAC ratio, Sgpl1” value stood at 1.7. In addition, the “SILAC ratio Hars” value in experiment [6] (competitor 25 μM) amounted to 1.3.
Take `CN1CCN(C(=O)c2c(-c3ccccc3)c3cc([N+](=O)[O-])ccc3n2C)CC1` [KML110, (1-Methyl-5-nitro-3-phenyl-1H-indol-2-yl)(4-methylpiperazin-1-yl)methanone]: in experiment [1] (competitor 25 μM), the “SILAC ratio Fxr1” value is 1.5. Besides, the “SILAC ratio Ociad1” value in experiment [2] (competitor 25 μM) worked out at 1.3. The “SILAC ratio, Dhrs1” value in experiment [3] (competitor 25 μM) was 2.7. In experiment [4] (competitor 25 μM), the “SILAC ratio Parl” value was 1.3. In experiment [5] (competitor 25 μM), the “SILAC ratio, Sgpl1” value came out at 1.4. For the same compound, in experiment [6] (competitor 25 μM), the “SILAC ratio Hars” value is 1.5.
Turning to `CN1CCN(C(=O)c2[nH]c3ccc([N+](=O)[O-])cc3c2-c2ccccc2)CC1` [MJN228, (4-Methylpiperazin-1-yl)(5-nitro-3-phenyl-1H-indol-2-yl)methanone], the “SILAC ratio Fxr1” value came out at 1.2 in experiment [1] (competitor 10 μM), 1.3 in experiment [1] (competitor 25 μM), 1.1 in experiment [1] (competitor 50 μM) and 1.1 in experiment [1] (competitor 100 μM). Further, the “SILAC ratio Ociad1” value in experiment [2] (competitor 10 μM) was determined as 1.1; in experiment [2] (competitor 25 μM), 1.4; in experiment [2] (competitor 50 μM), 1.1; in experiment [2] (competitor 100 μM) it was 1.5. In addition, the “SILAC ratio, Dhrs1” value in experiment [3] (competitor 10 μM) worked out at 1.4; in experiment [3] (competitor 25 μM), 1.8; in experiment [3] (competitor 50 μM), 2.4; in experiment [3] (competitor 100 μM) it was 4.4. Also, the “SILAC ratio Parl” value in experiment [4] (competitor 10 μM) was found to be 1.3; in experiment [4] (competitor 25 μM), 1.4; in experiment [4] (competitor 50 μM), 1.1; in experiment [4] (competitor 100 μM) it was 1.9. Moreover, the “SILAC ratio, SGPL1 (O95470)” value in experiment [5] (competitor 25 μM) was 1.5. The “SILAC ratio, Sgpl1” value came out at 1.3 in experiment [5] (competitor 10 μM), 1.5 in experiment [5] (competitor 25 μM), 1.8 in experiment [5] (competitor 50 μM) and 2.7 in experiment [5] (competitor 100 μM). Moreover, the “SILAC ratio Hars” value in experiment [6] (competitor 10 μM) was 1.6; in experiment [6] (competitor 25 μM), 1.5; in experiment [6] (competitor 50 μM), 1.0; in experiment [6] (competitor 100 μM) it was 1.4.
With `C=CCN(C)CCCCCCOc1ccc(C(=O)c2ccc(Br)cc2)c(F)c1` [Ro 48-8071, reference compound], in experiment [1] (competitor 25 μM), the “SILAC ratio Fxr1” value was 0.9. The “SILAC ratio Ociad1” value in experiment [2] (competitor 25 μM) worked out at 1.0. In addition, the “SILAC ratio, Dhrs1” value in experiment [3] (competitor 25 μM) is on record as 9.5. Moreover, the “SILAC ratio Parl” value in experiment [4] (competitor 25 μM) was determined as 1.1. Moreover, in experiment [5] (competitor 25 μM), the “SILAC ratio, SGPL1 (O95470)” value is given as 1.2 and the “SILAC ratio, Sgpl1” value is given as 1.2. The “SILAC ratio Hars” value in experiment [6] (competitor 25 μM) turned out to be 0.9.
